Laboratory results reported in ChEMBL document CHEMBL5550215, “Discovery of Novel Imidazo[1,2-a]pyridine-Based HDAC6 Inhibitors as an Anticarcinogen with a Cardioprotective Effect” (J Med Chem, 2024).
The source made the active and inactive calls. No cut-off for these calls is given here.

How the values were obtained:
[1] = Toxicity in C57BL/6 mouse assessed as effect on body weight at 25 to 50 mg/kg, ip measured after 21 days; assay type: organism-based; conditions: in vivo, 504 h, dose 25-50 mg/kg, time 21 day
H9c2 [2] = assay: Cardioprotective activity against H2O2 induced myocardial damage in rat H9c2 cells harbouring Ad.HDAC6 assessed as decrease in LDH leakage rate at 8 uM by absorbance based analysis; assay type: functional, cell-based
[3] = Toxicity in C57BL/6 mouse assessed as cell necrosis at 25 to 50 mg/kg, ip by H and E staining based analysis; assay type: organism-based; conditions: in vivo, dose 25-50 mg/kg
H9c2 [4] = assay: Cardioprotective activity in H2O2 induced myocardial injury in rat H9c2 cells assessed as effect on P62 level at upto 8 uM by q-PCR analysis; assay type: functional, cell-based
Mus musculus [5] = assay: Cardioprotective activity against myocardial ischemia/reperfusion induced C57BL/6J mouse model assessed as alleviation of extensive myocardial necrosis at 10 mg/kg by H and E staining based analysis; assay type: functional, organism-based
Mus musculus [6] = assay: Cardioprotective activity against myocardial ischemia/reperfusion induced C57BL/6J mouse model assessed as reduction in IL-1 beta expression at 2.5 to 10 mg/kg; assay type: functional, organism-based; conditions: dose 2.5-10 mg/kg
H9c2 [7] = assay: Cardioprotective activity in H2O2 induced myocardial injury in rat H9c2 cells assessed as downregulation of IL-18 expression; assay type: functional, cell-based; conditions: dose <= 8.0 µM
H9c2 [8] = assay: Cardioprotective activity in H2O2 induced myocardial injury in rat H9c2 cells assessed as decrease in cell contraction at 2 to 8 uM; assay type: functional, cell-based; conditions: dose 2-8 µM
H9c2 [9] = assay: Cardioprotective activity against H2O2 induced myocardial damage in rat H9c2 cells harbouring Ad.GFP assessed as increase in cell viability at 8 uM by MTT assay; assay type: functional, cell-based
NCI-H460 = assay: Antiproliferative activity against human NCI-H460 cells assessed as inhibition of cell growth by MTT assay
H9c2 [10] = assay: Protection against H2O2 induced myocardial cell injury in rat H9c2 cells at 10 uM pretreated for 24 hrs followed by H2O2 exposure and measured after 1.5 hrs (reference value: 17.91 to 57.32%); assay type: functional; conditions: time 25.5 hrs
[11] = Observed clearance in male Sprague-Dawley rat at 7 mg/kg,iv measured upto 8 hrs by UPLC-MS/MS analysis; assay type: ADME, organism-based; conditions: in vivo
[12] = molecular target: T1, Protein deacetylase HDAC6 (Mus musculus) (UniProt Q9Z2V5); assay: In vivo inhibition of HDAC6 in C57BL/6 mouse xenografted with MGC-803 cells assessed as effect on acetylated tubulin level at 25 to 50 mg/kg, ip by Western blot analysis; assay type: functional, organism-based; conditions: dose 25-50 mg/kg
T1 sequence (whole entry): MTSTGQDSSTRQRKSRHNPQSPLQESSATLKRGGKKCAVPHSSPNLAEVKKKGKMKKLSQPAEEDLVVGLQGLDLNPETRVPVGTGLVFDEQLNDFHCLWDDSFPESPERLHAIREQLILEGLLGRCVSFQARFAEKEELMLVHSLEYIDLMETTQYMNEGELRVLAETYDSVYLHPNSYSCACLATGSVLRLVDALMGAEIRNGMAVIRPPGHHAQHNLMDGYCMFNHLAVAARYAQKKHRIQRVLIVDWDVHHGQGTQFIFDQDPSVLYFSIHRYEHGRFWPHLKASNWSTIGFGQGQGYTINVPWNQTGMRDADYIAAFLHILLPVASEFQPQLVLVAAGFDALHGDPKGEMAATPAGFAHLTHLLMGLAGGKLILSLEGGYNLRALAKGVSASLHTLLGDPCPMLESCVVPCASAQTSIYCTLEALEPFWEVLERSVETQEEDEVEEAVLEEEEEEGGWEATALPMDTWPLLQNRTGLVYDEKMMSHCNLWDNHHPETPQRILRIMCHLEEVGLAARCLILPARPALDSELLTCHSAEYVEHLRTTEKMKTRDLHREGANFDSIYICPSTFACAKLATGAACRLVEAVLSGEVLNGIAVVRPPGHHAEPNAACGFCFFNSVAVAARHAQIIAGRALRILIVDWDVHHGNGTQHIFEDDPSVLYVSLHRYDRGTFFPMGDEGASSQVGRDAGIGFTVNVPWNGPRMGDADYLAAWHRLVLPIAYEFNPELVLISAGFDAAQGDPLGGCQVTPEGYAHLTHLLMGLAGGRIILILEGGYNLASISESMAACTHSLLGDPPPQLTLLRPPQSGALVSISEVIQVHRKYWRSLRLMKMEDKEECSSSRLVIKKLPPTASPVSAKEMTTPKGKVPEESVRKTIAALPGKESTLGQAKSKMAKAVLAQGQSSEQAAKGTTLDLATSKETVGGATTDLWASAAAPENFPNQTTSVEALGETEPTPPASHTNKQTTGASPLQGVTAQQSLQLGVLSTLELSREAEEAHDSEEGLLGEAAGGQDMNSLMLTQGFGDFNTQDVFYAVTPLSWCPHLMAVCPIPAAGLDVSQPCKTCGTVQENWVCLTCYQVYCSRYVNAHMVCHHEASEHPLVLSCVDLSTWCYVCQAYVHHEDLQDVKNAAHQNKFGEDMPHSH

MGC-803 [13] = assay: Antitumor activity against human MGC-803 cells xenografted in […] mouse model assessed as decrease in HDAC6 expression administered as IP dose by Western blot analysis; assay type: functional, cell-based; conditions: dose 25-50 mg/kg
H9c2 [14] = assay: Cardioprotective activity in H2O2 induced myocardial injury in rat H9c2 cells assessed as cell viability by MTT assay; assay type: functional, cell-based; conditions: dose <= 8.0 µM
MGC-803 [15] = assay: Antimetastatic activity in human MGC-803 cells; assay type: functional, cell-based; conditions: dose <= 2.0 µM
PC-3 = assay: Antiproliferative activity against human PC-3 cells assessed as inhibition of cell growth by MTT assay
H9c2 [16] = assay: Cardioprotective activity against H2O2 induced myocardial damage in rat H9c2 cells harbouring Ad.GFP assessed as decrease in LDH leakage rate at 8 uM by absorbance based analysis; assay type: functional, cell-based
[17] = AUC (0 to infinity) in male Sprague-Dawley rat at 7 mg/kg,po measured upto 8 hrs by UPLC-MS/MS analysis; assay type: ADME, organism-based; conditions: in vivo
H9c2 [18] = assay: Cardioprotective activity in H2O2 induced myocardial injury in rat H9c2 cells assessed as effect on HO-1 level at upto 8 uM by q-PCR analysis; assay type: functional, cell-based
BGC-823 = assay: Antiproliferative activity against human BGC-823 cells assessed as inhibition of cell growth by MTT assay
H9c2 [19] = assay: Cardioprotective activity in H2O2 induced myocardial injury in rat H9c2 cells assessed as effect on beclin1 level at upto 8 uM by q-PCR analysis; assay type: functional, cell-based
[20] = Cmax in male Sprague-Dawley rat at 7 mg/kg,iv measured upto 8 hrs by UPLC-MS/MS analysis; assay type: ADME, organism-based; conditions: in vivo
MGC-803 [21] = assay: Induction of apoptosis in human MGC-803 cells assessed as late apoptotic cells at 2 uM measured after 48 hrs by Annexin V-EGFP and PI staining based flow cytometry analysis (reference value: 3.16%); assay type: functional
MGC-803 [22] = assay: Induction of apoptosis in human MGC-803 cells assessed as early apoptotic cells at 2 uM measured after 48 hrs by Annexin V-EGFP and PI staining based flow cytometry analysis (reference value: 0.66%); assay type: functional

O=C(NO)c1ccc(CNC(=O)c2cc(-c3ccc(F)cc3)cn3ccnc23)cc1
Activity [1]: Non-Toxic
Activity (H9c2 [2]): Active
Activity [3]: Non-Toxic
Activity (H9c2 [4]): inactive
Activity (Mus musculus [5]): Active
Activity (Mus musculus [6]): Active
Activity (H9c2 [7]): Dose-Dependent Effect
Activity (H9c2 [8]): Active
Activity (H9c2 [9]): Active
IC50 (NCI-H460): > 10 µM
Activity (H9c2 [10]): 66.13%
clearance [11]: 134 mL/min/kg
inhibition [12]: Active
Activity (MGC-803 [13]): Dose-Dependent Effect
Activity (H9c2 [14]): Active
Activity (MGC-803 [15]): Dose-Dependent Effect
IC50 (PC-3): > 10 µM
Activity (H9c2 [16]): Active
AUC(0-inf) [17]: 105 ng·h/mL
Activity (H9c2 [18]): inactive
IC50 (BGC-823): 2.25 µM
Activity (H9c2 [19]): inactive
Cmax [20]: 807 ng/mL
Activity (MGC-803 [21]): 24.2%
Activity (MGC-803 [22]): 0.7%
